The text below walks through data of patent US20250171459A1, “2-METHYL-4',5'-DIHYDROSPIRO[PIPERIDINE-4,7'-THIENO[2,3-C]PYRAN] DERIVATIVES AS INHIBITORS OF APOL1 AND METHODS OF USING SAME” (Vertex Pharmaceuticals Incorporated, priority 2022, published 2025).

Bounds are passed on as bounds.

This assay concerns the target T1, APOL1 (Homo sapiens, UniProt O14791).
T1 sequence (O14791 1-398 S342G/I384M): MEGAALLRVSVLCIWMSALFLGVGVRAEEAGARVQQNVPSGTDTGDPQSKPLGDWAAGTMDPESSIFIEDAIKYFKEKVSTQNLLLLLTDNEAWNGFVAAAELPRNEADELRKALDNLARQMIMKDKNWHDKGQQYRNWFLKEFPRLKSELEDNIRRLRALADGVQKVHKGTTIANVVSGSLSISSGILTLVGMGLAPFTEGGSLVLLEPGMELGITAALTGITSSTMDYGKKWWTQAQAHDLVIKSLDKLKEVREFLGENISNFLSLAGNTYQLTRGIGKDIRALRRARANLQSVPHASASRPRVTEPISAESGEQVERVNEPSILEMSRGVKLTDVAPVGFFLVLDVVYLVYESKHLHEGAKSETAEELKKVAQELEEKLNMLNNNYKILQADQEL
The assay can be described thus: MultiTox-Fluor Multiplex Cytotoxicity Assay in tet-inducible APOL1 T-REx-HEK293 cells (cell rescue, ratio of dead to live cells). The assay is classed as cell-based. To be noted: tet-inducible transgenic APOL1 T-REx-HEK293 cell lines, 50 ng/mL tet, 24 hours; read-out: IP50 (i.e., IC50 for cell proliferation). In short, it runs like this:
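T-REx-HEK293 cells with tet-inducible APOL1 were treated with compound (10 μM top, 10-point 3-fold dilution, duplicate) plus 50 ng/mL tetracycline for 24 h at 37° C, in DMEM with 2% tet-free FBS. MultiTox-Fluor protease signals gave a dead/live ratio, normalized to no tet (100% viability) and tet alone (0%).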

As for `Cn1cc(CN2CCC3(CC2)OCC(C)(C)c2sc(Cl)cc23)cn1` [Compound 1178, 2-chloro-7,7-dimethyl-1′-[(1-methylpyrazol-4-yl)methyl]spiro[6H-thieno[3,2-c]pyran-4,4′-piperidine]], the IC50 was less than 100 nM.
Take `Cn1cc(CN2CCC3(CC2)OCC2(CC2)c2sc(Cl)cc23)cn1` [Compound 1179, 2′-chloro-1″-[(1-methyl-1H-pyrazol-4-yl)methyl]-6′H-dispiro[cyclopropane-1,7′-thieno[3,2-c]pyran-4′,4″-piperidine]]: the IC50 is less than 100 nM.
As for `CS(=O)(=O)CCn1cc(CN2CCC3(CC2)OCC(O)c2cc(Cl)sc23)cn1` (centres unmarked) [Compound 1181, 2-chloro-1′-[[1-(2-methylsulfonylethyl)pyrazol-4-yl]methyl]spiro[4,5-dihydrothieno[2,3-c]pyran-7,4′-piperidine]-4-ol], the figure is 500 to 1000 nM; as for `CCc1cc2c(s1)C(CC)COC21CCN(Cc2cn(CCS(C)(=O)=O)nn2)CC1` (centres unmarked) [Compound 1182, 2,7-diethyl-1′-[[1-(2-methylsulfonylethyl)triazol-4-yl]methyl]spiro[6,7-dihydrothieno[3,2-c]pyran-4,4′-piperidine]], 500 to 1000 nM.
As for `CCc1cc2c(s1)CCOC21CCN(Cc2cn(C3CS(=O)(=O)C3)nn2)CC1` [Compound 1183], the figure is 500 to 1000 nM.
